How the values were obtained:
[1] = Stock and working solution stability; format: physicochemical; details: for Short-term stability, %Stability: 8.46 h at room temperature; for Stock solution stability, %Stability: 21 days, stock solutions in methanol stored at refrigerator temperature 1–10°C; for working solutions found stable for: room temperature
Description: Separate stock solutions were used to prepare calibration curve (CC) standards and quality (QC) control samples. The prepared stock solutions were protected from light and stored in refrigerator between 1–10°C until use. A fresh working solution of IS (1500.00 ng/ml) was prepared everyday by taking appropriate dilution of the stock solution in methanol:water (50:50 v/v).
Stock solution stability of both analyte and internal standard was carried out for 21 days at refrigerated temperature (1–10°C). Short-term stability both analyte and internal standard was carried out for 8.46 h at room temperature.

[2] = Stability of spiked human plasma QC samples (bench top, freeze-thaw, autosampler, long-term); format: in vitro ADME; details: for Auto sampler stability (100.87 h), %Nominal, stability QC samples: processed samples
[3] = cited from earlier work
[4] = Blood stability (sample collection process stability) at room temperature; format: in vitro ADME, human; details: 2.45 h at room temperature
[5] = human plasma, low concentration QC

Compound | Short-term stability, %Stability [1] [%] | Stock solution stability, %Stability [1] [%] | working solutions found stable for [1] [h] | processed samples stable in auto sampler for ([2]; at 10°C) [h] | Bench top stability during extraction (9.60 h), %Nominal, stability QC samples ([2]; high concentration QC) [%] | bench top stability in matrix ([2]; human plasma, 6.15 h) [%] | comparative freeze-thaw stability at the end of third freeze and thaw cycle ([2]; human plasma, below -15°C and below -50°C) [%] | Freeze thaw stability (three freeze thaw cycles, below -50°C), %Nominal, stability QC samples ([2]; human plasma, high concentration QC) [%] | Bench top stability in matrix (6.15 h), %Nominal, stability QC samples [2, 5] [%] | Freeze thaw stability (three freeze thaw cycles, below -15°C), %Nominal, stability QC samples [2, 5] [%] | Freeze thaw stability (three freeze thaw cycles, below -50°C), %Nominal, stability QC samples [2, 5] [%] | Bench top stability during extraction (9.60 h), %Nominal, stability QC samples ([2]; low concentration QC) [%] | Auto sampler stability (100.87 h), %Nominal, stability QC samples ([2]; high concentration QC) [%] | Auto sampler stability (100.87 h), %Nominal, stability QC samples ([2]; low concentration QC) [%] | permeability ([3]; inferred from almost complete oral absorption) | Tmax ([3]; oral) [h] | %Stability ([4]; HQC) [%] | %Stability ([4]; LQC) [%] | stock solution found stable for ([1]; stored in refrigerator between 1 and 10°C) [days]
[2H]c1c([2H])c(C(=O)Nc2ccc(C)c(Nc3nccc(-c4cccnc4)n3)c2)c([2H])c([2H])c1CN1CCN(C)CC1 [imatinib-D4] | 100.96 | 99.15 | 16 |  |  |  |  |  |  |  |  |  |  |  |  |  |  |  | 
Cc1ccc(NC(=O)c2ccc(CN3CCN(C)CC3)cc2)cc1Nc1nccc(-c2cccnc2)n1 [imatinib] | 101.88 | 101.63 | 16 | 100.87 | 98.96 | 97.75 to 100.23 | 97.45 to 101.41 | 102.3 | 96.03 | 97.16 | 97.03 | 94.80 | 102.61 | 98.34 | high permeability | 2 to 4 | 99.27 | 100.72 | 21

— article PMC5137965 (Future Science OA, 2016)
